According to patent publication US20250026752A1, “POSITIVE ALLOSTERIC MODULATORS OF THE MUSCARINIC ACETYLCHOLINE RECEPTOR M4” (Vanderbilt University, priority 2021, published 2025):

Molecular target: T1, human mAChR M4 (Homo sapiens, UniProt P08173)
T1 construct: expressed in transfected cells; host or cells: CHO-K1 (ATCC), stably expressing hM4 and Gqi5
T1 sequence (P08173 1-479): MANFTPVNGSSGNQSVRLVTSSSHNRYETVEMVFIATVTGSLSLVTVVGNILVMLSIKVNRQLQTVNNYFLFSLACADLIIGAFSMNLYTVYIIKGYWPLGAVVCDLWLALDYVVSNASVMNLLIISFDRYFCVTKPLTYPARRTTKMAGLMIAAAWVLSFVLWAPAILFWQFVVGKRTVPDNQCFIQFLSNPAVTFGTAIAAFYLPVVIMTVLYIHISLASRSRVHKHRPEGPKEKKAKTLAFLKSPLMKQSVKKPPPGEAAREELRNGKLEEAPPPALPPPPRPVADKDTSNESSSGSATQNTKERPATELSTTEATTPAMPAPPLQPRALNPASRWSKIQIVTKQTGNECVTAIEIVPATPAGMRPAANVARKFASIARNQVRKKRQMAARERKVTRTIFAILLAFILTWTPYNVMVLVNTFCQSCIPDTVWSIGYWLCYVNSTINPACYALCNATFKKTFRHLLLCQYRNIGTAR
Assay: mAChR M4 cell-based functional assay: calcium flux (Fluo-4, FDSS), positive allosteric modulator activity on the EC20 acetylcholine response, hM4-Gqi5 CHO-K1 cells
Conditions: for Emax at 30 µM: CHO-K1, human M4, % ACh maximum at 30 μM; for EC50: human M4, PAM activity on EC20 acetylcholine response, calcium flux, read-out: Human M4 EC50
Outline: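 Potentiation was taken as the concentration-dependent rise in the EC20 acetylcholine calcium response, fitted by a four-parameter logistic with EC20 as baseline. Fluo-4-loaded hM4-Gqi5 CHO-K1 cells received 11-point, threefold-diluted compound before acetylcholine at 144 s; FDSS read at 1 Hz.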

SMILES	Emax at 30 µM	EC50
CN1CCN(c2cnc3c(c2)CN(c2ncnc4ccc(F)cc24)CC3)CC12COC2 [Compound 283, 8-(6-(6-fluoroquinazolin-4-yl)-5,6,7,8-tetrahydro-1,6-naphthyridin-3-yl)-5-methyl-2-oxa-5,8-diazaspiro[3.5]nonane]	99%	700 nM
CN1CCN(c2cnc3c(c2)CN(c2ncnc4cc(F)c(F)cc24)CC3)CC12COC2 [Compound 284, 8-(6-(6,7-difluoroquinazolin-4-yl)-5,6,7,8-tetrahydro-1,6-naphthyridin-3-yl)-5-methyl-2-oxa-5,8-diazaspiro[3.5]nonane]	104%	500 nM
Cc1nc(N2CCc3ncc(N4CCN(C)C5(COC5)C4)cc3C2)c2cc(Cl)ccc2n1 [Compound 285, 8-(6-(6-chloro-2-methylquinazolin-4-yl)-5,6,7,8-tetrahydro-1,6-naphthyridin-3-yl)-5-methyl-2-oxa-5,8-diazaspiro[3.5]nonane]	98%	580 nM
Cc1ccccc1-c1cnc2c(c1)CN(c1ncnc3ccc(F)cc13)CC2 [Compound 292, 6-fluoro-4-(3-(o-tolyl)-7,8-dihydro-1,6-naphthyridin-6(5H)-yl)quinazoline]	79%	660 nM
Cc1ccc(F)cc1-c1cnc2c(c1)CN(c1ncnc3ccc(F)cc13)CC2 [Compound 293, 6-fluoro-4-(3-(5-fluoro-2-methylphenyl)-7,8-dihydro-1,6-naphthyridin-6(5H)-yl)quinazoline]	80%	740 nM
Cc1nc(N2CCc3ncc(-c4ccccc4C)cc3C2)c2cc(F)ccc2n1 [Compound 294, 6-fluoro-2-methyl-4-(3-(o-tolyl)-7,8-dihydro-1,6-naphthyridin-6(5H)-yl)quinazoline]	68%	1630 nM
Cc1nc(N2CCc3ncc(-c4cc(F)ccc4C)cc3C2)c2cc(F)ccc2n1 [Compound 295, 6-fluoro-4-(3-(5-fluoro-2-methylphenyl)-7,8-dihydro-1,6-naphthyridin-6(5H)-yl)-2-methylquinazoline]	85%	2630 nM
COc1ccc2ncnc(N3CCc4ncc(-c5ccccc5C)cc4C3)c2c1 [Compound 296, 6-methoxy-4-(3-(o-tolyl)-7,8-dihydro-1,6-naphthyridin-6(5H)-yl)quinazoline]	102%	1370 nM
COc1ccc2ncnc(N3CCc4ncc(-c5cc(F)ccc5C)cc4C3)c2c1 [Compound 297, 4-(3-(5-fluoro-2-methylphenyl)-7,8-dihydro-1,6-naphthyridin-6(5H)-yl)-6-methoxyquinazoline]	101%	1550 nM
Cc1ccc2ncnc(N3CCc4ncc(-c5ccccc5C)cc4C3)c2c1 [Compound 298, 6-methyl-4-(3-(o-tolyl)-7,8-dihydro-1,6-naphthyridin-6(5H)-yl)quinazoline]	100%	1300 nM
Cc1ccc2ncnc(N3CCc4ncc(-c5cc(F)ccc5C)cc4C3)c2c1 [Compound 299, 4-(3-(5-fluoro-2-methylphenyl)-7,8-dihydro-1,6-naphthyridin-6(5H)-yl)-6-methylquinazoline]	94%	1200 nM
Cc1ccccc1-c1cnc2c(c1)CN(c1ncnc3ccc(Cl)cc13)CC2 [Compound 300, 6-chloro-4-(3-(o-tolyl)-7,8-dihydro-1,6-naphthyridin-6(5H)-yl)quinazoline]	96%	3600 nM
Cc1ccc(F)cc1-c1cnc2c(c1)CN(c1ncnc3ccc(Cl)cc13)CC2 [Compound 301, 6-chloro-4-(3-(5-fluoro-2-methylphenyl)-7,8-dihydro-1,6-naphthyridin-6(5H)-yl)quinazoline]	94%	3060 nM
Cc1nc(N2CCc3ncc(-c4ccccc4C)cc3C2)c2cc(Cl)ccc2n1 [Compound 302, 6-chloro-2-methyl-4-(3-(o-tolyl)-7,8-dihydro-1,6-naphthyridin-6(5H)-yl)quinazoline]	94%	5370 nM
Cc1nc(N2CCc3ncc(-c4cc(F)ccc4C)cc3C2)c2cc(Cl)ccc2n1 [Compound 303, 6-chloro-4-(3-(5-fluoro-2-methylphenyl)-7,8-dihydro-1,6-naphthyridin-6(5H)-yl)-2-methylquinazoline]	91%	9200 nM
Cc1cc(F)c(F)cc1-c1cnc2c(c1)CN(c1ncnc3ccc(F)cc13)CC2 [Compound 306, 4-(3-(4,5-difluoro-2-methylphenyl)-7,8-dihydro-1,6-naphthyridin-6(5H)-yl)-6-fluoroquinazoline]	69%	5500 nM
Cc1nc(N2CCc3ncc(-c4cc(F)c(F)cc4C)cc3C2)c2cc(F)ccc2n1 [Compound 307, 4-(3-(4,5-difluoro-2-methylphenyl)-7,8-dihydro-1,6-naphthyridin-6(5H)-yl)-6-fluoro-2-methylquinazoline]	54%	3730 nM

Results, then the molecule that gave them:

Emax at 30 µM	EC50	SMILES
90%	390 nM	Fc1ccc2ncnc(N3CCc4ncc(N5CCCn6nc(C7CC7)cc65)cc4C3)c2c1 [Compound 280, 4-(3-(2-cyclopropyl-6,7-dihydropyrazolo[1,5-a]pyrimidin-4(5H)-yl)-7,8-dihydro-1,6-naphthyridin-6(5H)-yl)-6-fluoroquinazoline]
104%	30 nM	[2H]C1([2H])N(c2cnc3c(c2)CN(c2ncnc4ccc(F)cc24)CC3)c2ccnn2C([2H])([2H])C1([2H])[2H] [Compound 281, 4-(3-(6,7-dihydropyrazolo[1,5-a]pyrimidin-4(5H)-yl-5,5,6,6,7,7-d6)-7,8-dihydro-1,6-naphthyridin-6(5H)-yl)-6-fluoroquinazoline]
111%	30 nM	[2H]C1([2H])N(c2cnc3c(c2)CN(c2ncnc4cc(F)c(F)cc24)CC3)c2ccnn2C([2H])([2H])C1([2H])[2H] [Compound 282, 4-(3-(6,7-dihydropyrazolo[1,5-a]pyrimidin-4(5H)-yl-5,5,6,6,7,7-d6)-7,8-dihydro-1,6-naphthyridin-6(5H)-yl)-6,7-difluoroquinazoline]
97%	170 nM	Fc1cc2ncnc(N3CCc4ncc(CC(F)(F)F)cc4C3)c2cc1F [Compound 286, 6,7-difluoro-4-(3-(2,2,2-trifluoroethyl)-7,8-dihydro-1,6-naphthyridin-6(5H)-yl)quinazoline]
85%	360 nM	Cc1nc(N2CCc3ncc(CC(F)(F)F)cc3C2)c2cc(Cl)ccc2n1 [Compound 287, 6-chloro-2-methyl-4-(3-(2,2,2-trifluoroethyl)-7,8-dihydro-1,6-naphthyridin-6(5H)-yl)quinazoline]
75%	40 nM	C[C@@H]1CCN(c2cnc3c(c2)CN(c2ncnc4ccc(F)cc24)CC3)c2ccnn21 [Compound 288, (R)-6-fluoro-4-(3-(7-methyl-6,7-dihydropyrazolo[1,5-a]pyrimidin-4(5H)-yl)-7,8-dihydro-1,6-naphthyridin-6(5H)-yl)quinazoline]
72%	490 nM	C[C@H]1CCN(c2cnc3c(c2)CN(c2ncnc4ccc(F)cc24)CC3)c2ccnn21 [Compound 289, (S)-6-fluoro-4-(3-(7-methyl-6,7-dihydropyrazolo[1,5-a]pyrimidin-4(5H)-yl)-7,8-dihydro-1,6-naphthyridin-6(5H)-yl)quinazoline]
91%	200 nM	CC(O)(c1cnc2c(c1)CN(c1ncnc3cc(F)c(F)cc13)CC2)C(F)(F)F (stereo not drawn) [Compound 290, 2-(6-(6,7-difluoroquinazolin-4-yl)-5,6,7,8-tetrahydro-1,6-naphthyridin-3-yl)-1,1,1-trifluoropropan-2-ol]
97%	400 nM	Cc1nc(N2CCc3ncc(C(C)(O)C(F)(F)F)cc3C2)c2cc(Cl)ccc2n1 (stereo not drawn) [Compound 291, 2-(6-(6-chloro-2-methylquinazolin-4-yl)-5,6,7,8-tetrahydro-1,6-naphthyridin-3-yl)-1,1,1-trifluoropropan-2-ol]
95%	80 nM	Cc1cc(F)ncc1-c1cnc2c(c1)CN(c1ncnc3ccc(F)cc13)CC2 [Compound 304, 6-fluoro-4-(3-(6-fluoro-4-methylpyridin-3-yl)-7,8-dihydro-1,6-naphthyridin-6(5H)-yl)quinazoline]
92%	130 nM	Cc1nc(N2CCc3ncc(-c4cnc(F)cc4C)cc3C2)c2cc(F)ccc2n1 [Compound 305, 6-fluoro-4-(3-(6-fluoro-4-methylpyridin-3-yl)-7,8-dihydro-1,6-naphthyridin-6(5H)-yl)-2-methylquinazoline]
71%	110 nM	COc1ccc2ncnc(N3CCc4ncc(-c5cnc(F)cc5C)cc4C3)c2c1 [Compound 308, 4-(3-(6-fluoro-4-methylpyridin-3-yl)-7,8-dihydro-1,6-naphthyridin-6(5H)-yl)-6-methoxyquinazoline]
83%	40 nM	Cc1ccc2ncnc(N3CCc4ncc(-c5cnc(F)cc5C)cc4C3)c2c1 [Compound 309, 4-(3-(6-fluoro-4-methylpyridin-3-yl)-7,8-dihydro-1,6-naphthyridin-6(5H)-yl)-6-methylquinazoline]
